Residues, ends and D or L forms follow the SMILES beside them. *: point of attachment. AFC = O=c1cc(C(F)(F)F)c2ccc(N*)cc2o1; Cbz = O=C(OCc1ccccc1)*; Boc = CC(C)(C)OC(=O)*
Assays:
Type in all cases: biochemical
[1] = test system: Taenia solium crude mix; test: Competitor assay with crude mix as source of the protease (Step III)
Protocol: In order to prepare the Taenia solium “crude mix” , dry frozen Taenia solium cysts were obtained from 6-12 month old cysticercotic pigs from villages in an endemic area of porcine cysticercosis in Mexico. Metacestodes were carefully dissected from the parasitized tissues, washed three times with PBS, and lyophilized. Parasite extracts were prepared by suspending 0.1 grams of dry frozen cysts in 10 ml of extraction buffer (0.4 M citrate, pH 4.9). The cysts were vortexed for three five-minute intervals with intermittent incubations (5 min) at 4 ° C. Particulate material was removed by centrifugation (20,000 x g, 120 min) and the resulting soluble fraction filtered ([…]). In assay buffers, the detectable amount of the crude mix, as described above, was employed and incubated with the target substrates.
One of the most intriguing findings in this experiment was that a highly similar inhibition pattern for the competitor assay was noted when the crude mix was employed as the source of the target protease. Although there were some variations in the effects of inhibitor dilution, the most highly ranked vehicles remained inhibitory consistently in comparison to the profile with the target protease. The relative profile and composition of the top tiers of vehicles was identical. Z-LLL-AFC, Z-LLY-AFC, Mu-LY-AFC, Boc-VPR-AFC, Z-SY-AFC, Z-RR-AFC, Z-FLF-AFC, Z-LGR-AFC consistently presented as the top eight vehicles (FIG. 5b), respectively, based upon their V values (Table 2). […] It was notable that the three vehicles had very similar V values. […] As was mentioned, this vehicle along with Z-LLL-AFC and Z-LLY-AFC, were consistently the most inhibitory vehicles. The V values of the most inhibitory vehicle series are shown below in Table 2. Again, a clear break between the first and second tier vehicles could be noted with the V value.

[2] = test system: purified Taenia solium cysteine protease; test: Competitor assay: vehicle inhibition of cleavage of high Vmax AFC substrate cocktails (Step III); conditions: purified protease; P = inhibition with first (1.4%) cocktail, M = inhibition with last (7.4%) cocktail
Protocol: (We employed “Vmax” here although Kcat could also be used). Due to the lower number of substrates, a percentage was not chosen for the “BOTTOM %” substrates. Alternately, all substrates which were not cleaved as determined by a value of 10 μM/hr or less, were chosen to be tested in this step for competitive ability. From this point forth, the term “vehicle” will represent low Vmax substrates that were capable of inhibiting cleavage of the percent cocktails. In this instance, we tested for “vehicles” which inhibited cleavage of the TOP 1.4% cocktail (they were delivered into the active site). Based upon our results from Step II, the top 1.4% cocktail was composed of Z-Phe-Arg-AFC, the highest cleaved substrate.
The experiment began with a competitor test between the noncleaved low Vmax substrates and the highest Vmax substrate, Z-Phe-Arg-AFC. Concentrations were varied between the low Vmax substrate and Z-Phe-Arg-AFC, as described above under “refinement of assay” until a relative inhibition profile was obtained.
The mixture was allowed to equilibrate for a period of 30 minutes. Finally, active purified enzyme was added to the tubes at a concentration which was always 50 times less than the concentration of the high and low Vmax substrates, in order to insure saturation conditions. This concentration varied from purification to purification and the amount added depended upon the yield and specific activity of the purified protease.
Positive controls were set up similarly as described for test controls, except that solvent was added in substitution for the low Vmax substrate (in a volume equal to the low Vmax volume addition). All of the substrates could be dissolved in dimethylsulfoxide (DMSO), and therefore, this was the solvent of choice. Negative controls were set up by adding the low Vmax and the high Vmax substrate in a tube without the protease. All potential non-proteolytic induced liberation of AFC was therefore controlled for in this tube (a feature which also insured stability of the AFC substrates, since these substrates will freely liberate AFC when unstable). A tube set will be established for this negative control.
All controls were set up in triplicate, and experiments repeated a minimum of five times. The assays were incubated at 37° C., for 18 hours overnight.
Percent inhibition was calculated as: [formula]
A 2.9% cocktail of the high Vmax substrates was made. This was composed of Z-FR-AFC and the second most cleaved substrate, Z-FAR-AFC. The vehicles promoted from the initial screenings above were again tested for competitive inhibition ability with the new cocktails. Their concentrations were set identically to those which were “fixed” in the previous protocols. […]

[3] = test system: purified Taenia solium cysteine protease; test: Screen of AFC-linked synthetic substrates for cleavage (Step II); conditions: pH 4.9, 18 h, 37° C
Protocol: In this step, the most efficacious substrate for detection of the cysteine protease (high Kcat substrate) was determined in vitro along with those substrates which were not well cleaved (low kcat substrates). From this point forth, the following conditions refer to all assays: “assay buffer” refers to 0.4 M Citrate, pH 4.9 (the pH optima of the protease). Incubation time was 18 hours at 37° C. These conditions were determined by our preliminary data to be best for kinetic evaluation of the protease. […] The experiments were conducted in […] Borosilicate mini-culture tubes (Fisher Scientific), and a fluorometer (Turner) was employed for detection of AFC cleavage.
Approximately 1 ug (or a proteolytically detectable amount) of the purified target cysteine protease was incubated individually, with 1 μg of each of the available substrates in 500 μL of assay buffer. During this setup, the substrate was pre-incubated in the assay buffer for a short period of time (20 minutes) in order to reach an equilibrated status before the addition of the protease. Cleavage assessments were based upon the property of the protease to cleave synthetic peptide substrates linked at the C-terminus to 7-Amino-4-Trifluoromethyl Coumarin (AFC) as previously described. AFC linked tripeptides, dipeptides, and monopeptides, (with a variety of permutations at P3-P1) were available from Enzyme Systems Products (Livermore, CA), and were used as the source of the subset. Following incubation of enzyme preparations overnight (18 h, 37 ° C.) with peptide in assay buffer (Citrate, pH 4.9, supplemented with 0.01 M cysteine), free AFC concentrations were measured fluorometrically (excitation […]). The proteolytic cleavage released the AFC group, which was measurable as a free molecule by a standard fluorometer and converted into molar quantities, based upon a previously established standard curve. The simplicity of AFC detection by the fluorometer was a key factor which quickened and simplified the procedures.
In the assay, 1 ug of the purified Taenia cysteine protease was added to a saturating amount of Z-Phe-Arg-AFC (4×10^−5 M) in assay buffer. The experiment was conducted in triplicate and repeated at least 5 times until we were certain that variability in AFC cleavage was not statistically significant.
Vmax was calculated for the cleavage of substrates by the purified target protease and Vmax was calculated for substrates cleaved by the crude mix protease using conventional kinetic modeling calculations already described in the art.

[4] = test system: purified Taenia solium cysteine protease; test: Protease inactivator inhibition assay (EC100, Ki; Step VII)
Source text: Once the protease inactivators were synthesized in the organic laboratory, they were to be tested for the lowest efficacious concentrations at which they induced 100% inhibition of the target protease (EC100). The top percent cocktail that was employed in the final vehicle selection step of Step III was employed as the source of competition for the inhibitors. In this case, this was the […] which was comprised of Z-FR-AFC, Z-FAR-AFC, Z-AP-AFC, Z-AAK-AFC, and Z-VLR-AFC. The final result would be a ranking of transition state candidate protease inactivators with a high ranking directly correlating to a low ECIoo value. The following steps describe the assay:
Step A: Initial Screening. To set up the test control, each protease inactivator was first incubated with the 5% cocktail (which provided the final differentiation of vehicles in Step III). To begin with, the protease inactivator was incubated at a concentration of 3×10^−9M in 500 μl of assay buffer (0.2 M Citrate, pH 4.9 supplemented with 10mM L-cysteine). This concentration was determined, after a series of inhibitor dilutions identified, to be the best inhibitor concentration at which a differentiation in inhibitor potential could be noted. Next, a concentration equal to 4×10^−5M for each of the individual cocktail components, was added to the mix. The components were allowed to equilibrate for a period of 30 minutes. […]
Percent inhibition was calculated as: [formula] […]
Step C: Determination ofInhibitor Ki and mode of inhibition, and re-ranking of EC100 list with inhibitor Ki. Ki of each of the top ranked protease inactivators, based upon low EC100 values, was assessed next for the top 5 EC100 inhibitors.
In order to determine Ki, all of the high Vmax cocktail substrates were employed for Ki determination (since Ki of the inhibitor for the enzyme is the same regardless of the substrate). To insure the highest accuracy, Ki was to be determined upon a minimum of at least three of the high Kcat substrates. […]

| SMILES | V Value (vehicle inhibition quotient, V=P*M) [1] | V Value (vehicle inhibition quotient, V=P*M) [2] | cleavage as substrate (Vmax) [3] | other results |
| --- | --- | --- | --- | --- |
| NC(N)=NCCC[C@H](NC(=O)OCc1ccccc1)C(=O)N[C@@H](CCCN=C(N)N)C(=O)Nc1ccc2c(C(F)(F)F)cc(=O)oc2c1 [Z-RR-AFC] (Cbz-Arg-Arg-{AFC}) | 0.09 | – | – | – |
| O=C(N[C@@H](CO)C(=O)N[C@@H](Cc1ccc(O)cc1)C(=O)Nc1ccc2c(C(F)(F)F)cc(=O)oc2c1)OCc1ccccc1 [Z-SY-AFC] (Cbz-Ser-Tyr-{AFC}) | 0.09 | 0.090 | – | – |
| CC(C)C[C@H](NC(=O)OCc1ccccc1)C(=O)NCC(=O)N[C@@H](CCCNC(=N)N)C(=O)Nc1ccc2c(C(F)(F)F)cc(=O)oc2c1 [Z-LGR-AFC, Z-Leu-Gly-Arg-AFC] (Cbz-Leu-Gly-Arg-{AFC}) | – | – | noncleavable | – |
| CC(C)[C@H](NC(=O)OC(C)(C)C)C(=O)N1CCC[C@H]1C(=O)N[C@@H](CCCNC(=N)N)C(=O)Nc1ccc2c(C(F)(F)F)cc(=O)oc2c1 [B-VPR-AFC, Boc-Val-Pro-Arg-AFC] (Boc-Val-Pro-Arg-{AFC}) | – | – | noncleavable | – |
| CC(C)C[C@H](NC(=O)OC(C)(C)C)C(=O)NCC(=O)N[C@@H](CCCNC(=N)N)C(=O)Nc1ccc2c(C(F)(F)F)cc(=O)oc2c1 [B-LGR-AFC] (Boc-Leu-Gly-Arg-{AFC}) | 0.02 | 0.07 | – | – |
| CC(C)C[C@H](NC(=O)[C@H](Cc1ccccc1)NC(=O)OCc1ccccc1)C(=O)N[C@@H](Cc1ccccc1)C(=O)Nc1ccc2c(C(F)(F)F)cc(=O)oc2c1 [Z-FLF-AFC] (Cbz-Phe-Leu-Phe-{AFC}) | 0.10 | 0.100 | – | – |
| CC(C)C[C@@H](/C=C/S(C)(=O)=O)NC(=O)[C@H](CC(C)C)NC(=O)[C@H](CC(C)C)NC(=O)OCc1ccccc1 [Z-LLL-VS, Z-Leu-Leu-Leu-vinylsulfone] | – | – | – | ranking of protease inactivators by inhibition / EC100 [4]: top inhibitors |
| NC(N)=NCCCC(NC(=O)C(Cc1ccccc1)NC(=O)OCc1ccccc1)C(=O)Nc1ccc2c(C(F)(F)F)cc(=O)oc2c1 (stereo not drawn) [Z-Phe-Arg-AFC] (Cbz-Phe-Arg-{AFC}; configuration not given here) | – | – | highest Vmax | – |
